Laboratory results published in US20130040978A1 (priority 2010, published 2013).
Where a name gives a salt, the structure may show the parent alone.

Assays:
SSTR5 [1] = molecular target: T1, SSTR5 (Homo sapiens, UniProt P35346); assay: SSTR5 receptor-ligand binding assay, CHO-K1 cell membranes, 125I-SRIF radioligand; design: expressed in transfected cells; conditions: Table 4, read-out: Bnd IC50
Experimental: The receptor-ligand binding assays of all 5 subtype of SSTRs were performed with membranes isolated from Chinese hamster ovary (CHO)-K1 cells stably expressing the cloned human somatostatin receptors in 96-well format as previous reported. (Yang et al. PNAS 95:10836-10841, (1998), Birzin et al. Anal. Biochem. 307:159-166, (2002)).
The stable cell lines for SSTR1-SSTR5 were developed by stably transfecting with DNA for all five SSTRs using Lipofectamine. Neomycin-resistant clones were selected and maintained in medium containing 400 μg/mL G418 (Rohrer et al. Science 282:737-740, (1998)). Binding assays were performed using (3-125I-Tyr11)-SRIF-14 or (3-125I-Tyrl 1)-SRIF-28 as the radioligand (used at 0.1 nM) and The Packard Unifilter assay plate. The assay buffer consisted of 50 mM TrisHCl (pH 7.8) with 1 mM EGTA, 5 mM MgCl2, leupeptin (10 μg/mL), pepstatin (10 μg/mL), bacitracin (200 μg/mL), and aprotinin (0.5 μg/mL). CHO-K1 cell membranes, radiolabeled somatostatin, and unlabeled test compounds were resuspended or diluted in this assay buffer. Unlabeled test compounds were examined over a range of concentrations from 0.01 nM to 10,000 nM. The Ki values for compounds were determined as described by Cheng and Prusoff Biochem Pharmacol. 22:3099-3108 (1973).

SSTR5 [2] = molecular target: T1, SSTR5; assay: Functional assay of inhibition of SSTR5 mediated cyclic AMP production in SSTR5 expressing CHO cells; assay type: cell-based, human; conditions: forskolin (FSK) plus SS-28, read-out: cAMP IC50

T1 sequence (P35346 whole entry): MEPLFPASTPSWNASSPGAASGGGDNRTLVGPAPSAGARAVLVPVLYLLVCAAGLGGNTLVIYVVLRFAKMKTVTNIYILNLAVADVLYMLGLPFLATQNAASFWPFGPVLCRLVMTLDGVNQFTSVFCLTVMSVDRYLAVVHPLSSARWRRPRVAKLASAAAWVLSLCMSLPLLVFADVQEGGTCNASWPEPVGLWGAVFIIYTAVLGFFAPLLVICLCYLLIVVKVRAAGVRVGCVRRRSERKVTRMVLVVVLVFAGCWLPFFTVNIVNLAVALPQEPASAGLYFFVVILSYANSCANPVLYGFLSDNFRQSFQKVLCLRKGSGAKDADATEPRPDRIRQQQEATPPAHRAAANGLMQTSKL

Row | Compound | IC50 (SSTR5 [1]) [nM] | IC50 (SSTR5 [2]) [nM]
1 | 4-{8-[(4,4-Dimethyl-3,4-dihydro-2-H-chromen-6-yl)methyl]-1-oxa-2,8-diazaspiro[4.5]dec-2-en-3-yl}benzoic acid, TFA salt [Example 2] | 4.3 | 5.2
2 | CCOc1cc(CN2CCC3(CC2)CC(c2ccc(C(=O)O)cc2)=NO3)cc(OCC)c1-c1ccc(F)cc1 [Example 1, 4-{8-[(2,6-Diethoxy-4′-fluorobiphenyl-4-yl)methyl]-1-oxa-2,8-diazaspiro[4.5]dec-2-en-3-yl}benzoic acid, TFA salt] | 1.2 | 0.72
3 | CC(C)(C)n1cc(CN2CCC3(CC2)CC(c2ccc(C(=O)O)cc2)=NO3)c(-c2ccc(F)c(F)c2F)n1 [Example 3, 4-(8-{[1-tert-Butyl-3-(2,3,4-trifluorophenyl)-1H-pyrazol-4-yl]methyl})-1-oxa-2,8-diazaspiro[4.5]dec-2-en-3-yl)benzoic acid, TFA salt] | 2.8 | 8.2
4 | CCOc1ccc(-c2ccc(F)cc2F)c(CN2CCC3(CC2)CC(c2ccc(C(=O)O)cc2)=NO3)c1 [Example 4, 4-{8-[(4-Ethoxy-2′,4′-difluorobiphenyl-2-yl)methyl]-1-oxa-2,8-diazaspiro[4.5]dec-2-en-3-yl}benzoic acid] | 2.9 | 3
5 | CCOc1cc(CN2CCC3(CC2)CC(c2ccc(C(=O)O)cc2)=NO3)cc(OCC)c1OCC(F)(F)F [Example 5, 4-{8-[3,5-Diethoxy-4-(2,2,2-trifluoroethoxy)benzyl]-1-oxa-2,8-diazaspiro[4.5]dec-2-en-3-yl}benzoic acid] | 6 | 2.4
6 | CCOc1ccc(-c2cc(F)c(F)cc2F)c(CN2CCC3(CC2)CC(c2ccc(C(=O)O)cc2)=NO3)c1 [Example 10, 4-{8-[(4-Ethoxy-2′,4′,5′-trifluorobiphenyl-2-yl)methyl]-1-oxa-2,8-diazaspiro[4.5]dec-2-en-3-yl}benzoic acid] | 1.8 | 5.7
7 | CCOc1cc(CN2CCC3(CC2)CC(c2ccc(C(=O)O)cc2)=NO3)ccc1Cl [Example 12, 4-[8-(4-Chloro-3-ethoxybenzyl)-1-oxa-2,8-diazaspiro[4.5]dec-2-en-3-yl]benzoic acid] | 7.5 | 1.3
8 | CC(C)Oc1ccc(-c2ccc(F)c(F)c2)c(CN2CCC3(CC2)CC(c2ccc(C(=O)O)cc2)=NO3)c1 [Example 13, 4-(8-{[3′,4′-Difluoro-4-(propan-2-yloxy)biphenyl-2-yl]methyl}-1-oxa-2,8-diazaspiro[4.5]dec-2-en-3-yl)benzoic acid] | 2.9 | 2.9
9 | CCOc1cc(CN2CCC3(CC2)CC(c2ccc(C(=O)O)cc2)=NO3)ccc1-c1nccs1 [Example 18, 4-{8-[3-Ethoxy-4-(1,3-thiazol-2-yl)benzyl]-1-oxa-2,8-diazaspiro[4.5]dec-2-en-3-yl}benzoic acid] | 12 | 11
10 | CCOc1cc(CN2CCC3(CC2)CC(c2ccc(C(=O)O)cc2)=NO3)c(-c2nccs2)cc1C [Example 19, 4-{8-[5-Ethoxy-4-methyl-2-(1,3-thiazol-2-yl)benzyl]-1-oxa-2,8-diazaspiro[4.5]dec-2-en-3-yl}benzoic acid] | 1.5 | 0.94
11 | CC(C)(C)n1cc(CN2CCC3(CC2)CC(c2ccc(C(=O)O)cc2)=NO3)c(-c2ccc(F)c(Cl)c2)n1 [Example 24] | 2.3 | 1.8
12 | CCOc1cc(CN2CCC3(CC2)CC(c2ccc(C(=O)O)cn2)=NO3)cc(OCC)c1-c1ccc(F)cc1 [Example 25, 6-{8-[(2,6-Diethoxy-4′-fluorobiphenyl-4-yl)methyl]-1-oxa-2,8-diazaspiro[4.5]dec-2-en-3-yl}pyridine-3-carboxylic acid] | 1.2 | 2.6
13 | CCOc1cc(CN2CCC3(CC2)CC(c2ccc(C(=O)O)cc2)=NO3)c(-c2ccc(F)nc2)cc1C [Example 26, 4-{8-[5-Ethoxy-2-(6-fluoropyridin-3-yl)-4-methylbenzyl]-1-oxa-2,8-diazaspiro[4.5]dec-2-en-3-yl}benzoic acid] | 0.33 | 0.32
14 | CC(C)(C)n1cc(CN2CCC3(CC2)CC(c2ccc(C(=O)O)cn2)=NO3)c(-c2ccc(F)c(Cl)c2)n1 [Example 27, 6-(8-{(1-tert-Butyl-3-(3-chloro-4-fluorophenyl)-1H-pyrazol-4-yl]methyl}-1-oxa-2,8-diazaspiro[4.5]dec-2-en-3-yl)pyridine-3-carboxylic acid] | 10 | 8.8
15 | CCOc1cc(CN2CCC3(CC2)CC(c2ccc(C(=O)O)cn2)=NO3)c(-c2ccc(F)c(F)c2F)cc1C [Example 29, 6-{8-[(4-Ethoxy-2′,3′,4′-trifluoro-5-methylbiphenyl-2-yl)methyl]-1-oxa-2,8-diazaspiro[4.5]dec-2-en-3-yl}pyridine-3-carboxylic acid] | 0.99 | 5.6
16 | CCOc1ccc(-c2ccc(F)c(F)c2F)c(CN2CCC3(CC2)CC(c2ccc(C(=O)O)cn2)=NO3)c1 [Example 30, 6-{8-[(4-Ethoxy-2′,3′,4′-trifluorobiphenyl-2-yl)methyl]-1-oxa-2,8-diazaspiro[4.5]dec-2-en-3-yl}pyridine-3-carboxylic acid] | 0.41 | 0.76
17 | O=C(O)c1ccc(C2=NOC3(CCN(Cc4ccc(Cl)c(Br)c4)CC3)C2)cc1 [Example 70, 4-[8-(3-Bromo-4-chlorobenzyl)-1-oxa-2,8-diazaspiro[4.5]dec-2-en-3-yl]benzoic acid] |  | 26.5
18 | O=C(O)c1ccc(C2=NOC3(CCN(Cc4cc(Cl)cc(C5CC5)c4)CC3)C2)cc1 [Example 85, 4-[8-(3-Chloro-5-cyclopropylbenzyl)-1-oxa-2,8-diazaspiro[4.5]dec-2-en-3-yl]benzoic acid, TFA salt] |  | 2.25
19 | CC1(C)CCOc2c(Cl)cc(CN3CCC4(CC3)CC(c3ccc(C(=O)O)cc3)=NO4)cc21 [Example 87, 4-{8-[(8-Chloro-4,4-dimethyl-3,4-dihydro-2H-chromen-6-yl)methyl]-1-oxa-2,8-diazaspiro[4.5]dec-2-en-3-yl}benzoic acid trifluoroacetate] |  | 1.5
20 | Cc1cc(CN2CCC3(CC2)CC(c2ccc(C(=O)O)cc2)=NO3)cc2c1OC(C)(C)CC2 [Example 91, 4-{8-[(2,2,8-Trimethyl-3,4-dihydro-2H-chromen-6-yl)methyl]-1-oxa-2,8-diazaspiro[4.5]dec-2-en-3-yl}benzoic acid, TFA salt] |  | 72.7
21 | CC1(C)CC2(CC2)c2cc(CN3CCC4(CC3)CC(c3ccc(C(=O)O)cc3)=NO4)ccc2O1 [Example 95, 4-{8-[(2,2-Dimethyl-2,3-dihydrospiro[chromene-4,1′-cyclopropan]-6-yl)methyl]-1-oxa-2,8-diazaspiro[4.5]dec-2-en-3-yl}benzoic acid, TFA salt] |  | 18.7
22 | CC1(C)CC2(CC2)c2cc(CN3CCC4(CC3)CC(c3ccc(C(=O)O)cc3)=NO4)cc(Cl)c2O1 [Example 96, 4-{8-[(8-Chloro-2,2-dimethyl-2,3-dihydrospiro[chromene-4,1′-cyclopropan]-6-yl)methyl]-1-oxa-2,8-diazaspiro[4.5]dec-2-en-3-yl}benzoic acid, TFA salt] |  | 9.4
23 | CC1(C)CC2(CC2)c2cc(CN3CCC4(CC3)CC(c3ccc(C(=O)O)cc3)=NO4)cc(C3CC3)c2O1 [Example 97, 4-{8-[(8-Cyclopropyl-2,2-dimethyl-2,3-dihydrospiro[chromene-4,1′-cyclopropan]-6-yl)methyl]-1-oxa-2,8-diazaspiro[4.5]dec-2-en-3-yl}benzoic acid, TFA salt] |  | 4.05
24 | CC1(C)CCSc2c(C3CC3)cc(CN3CCC4(CC3)CC(c3ccc(C(=O)O)cc3)=NO4)cc21 [Example 98, 4-{8-[(8-Cyclopropyl-4,4-dimethyl-3,4-dihydro-2H-thiochromen-6-yl)methyl]-1-oxa-2,8-diazaspiro[4.5]dec-2-en-3-yl}benzoic acid, TFA salt] |  | 12.6
25 | CC1(C)CCS(=O)(=O)c2c(Cl)cc(CN3CCC4(CC3)CC(c3ccc(C(=O)O)cc3)=NO4)cc21 [Example 99, 4-{8-[(8-Chloro-4,4-dimethyl-1,1-dioxido-3,4-dihydro-2H-thiochromen-6-yl)methyl]-1-oxa-2,8-diazaspiro[4.5]dec-2-en-3-yl}benzoic acid, TFA salt] |  | 472
